Data as given in US5744444A, “HPTH-fragment-(1-37), the preparation thereof, medicaments containing same and the use thereof” (HaemoPep Pharma GmbH, priority 1989, dated 1998).

B1: hPTH-(1-84): the secreted PTH molecule consisting of 84 amino acids (peptide, UniProt P01270 32-115, looked up)
Parathyroid hormone: SVSEIQLMHNLGKHLNSMERVEWLRKKLQDVHNFVALGAPLAPRDAGSQRPRKKEDNVLVESHEKSLGEADKADVNVLTKAKSQ
modifications: Parathyroid hormone
notes: the secreted PTH molecule consisting of 84 amino acids

Key:
[1] = secondary structure by UV circular dichroism; assay type: physicochemical; conditions: 50 μg/ml, 10 mM Tris-HCl buffer pH 7.5, room temperature, 190-240 nm; calculated by the method of Reed and Kinzel
Procedure: The circular dichroism was measured by means of a Jasco J-500 Automatic Recording Spectropolarimeter coupled with a Jasco DP-500 Data Processor. For the determination of the secondary structure, the measurement was carried out in the spectral range of from 190 nm to 240 nm at room temperature in a selected quartz cuvette at a light path of 1 mm. The parathormone concentrations employed were 50 μg/ml of hPTH-(1-33), 50 μg/ml of hPTH-(1-37) and 50 μg/ml of hPTH-(1-38). 10 mM Tris-HCl buffer pH 7.5 was used for dissolution (other conditions of the measurement: Sensitivity 2 milli-degrees/cm; time constant 2 seconds; recorder speed: 4 nm/min; wave length expansion: 5 nm/cm). The curves in FIG. 13 for hPTH-(1-33) hPTH-(1-37) and hPTH-(1-38) are average values for the signals from 4 subsequent measurements minus the base line values.
The evaluation for determining the secondary structure was performed in accordance with the method described by Reed and Kinzel (Biochemistry 23, 1357-1362, 1984).

hPTH-(44-68)-RIA = conditions: synthetic hPTH peptides; data provided by the producer (Immundiagnostik); cited from earlier work
hPTH-(53-84)-RIA = conditions: synthetic hPTH peptides; data provided by the producer (Immundiagnostik); cited from earlier work

| Molecule | α-helix proportion of the secondary structure [1] | cross-reaction in the hPTH-(44-68)-RIA (hPTH-(44-68)-RIA) | cross-reaction in the hPTH-(53-84)-RIA (hPTH-(53-84)-RIA) |
| --- | --- | --- | --- |
| hPTH-(1-33): synthetic N-terminal human PTH fragment, comparison peptide (SVSEIQLMHNLGKHLNSMERVEWLRKKLQDVHN; Parathyroid hormone; UniProt P01270 32-64, looked up, fragment) | similarly low as in hPTH-(1-38) |  |  |
| hPTH-(1-34): known synthetic amino-terminal partial sequence of human PTH (SVSEIQLMHNLGKHLNSMERVEWLRKKLQDVHNF; Parathyroid hormone; UniProt P01270 32-65, looked up, fragment) |  | do not show any cross-reaction | do not show any cross-reaction |
| hPTH-(1-38): known synthetic amino-terminal partial sequence of human PTH, comparison peptide (SVSEIQLMHNLGKHLNSMERVEWLRKKLQDVHNFVALG; Parathyroid hormone; UniProt P01270 32-69, looked up, fragment) | about 27% |  |  |
| hPTH-(28-48): synthetic hPTH peptide tested for cross-reaction in the RIAs (LQDVHNFVALGAPLAPRDAGS; Parathyroid hormone; UniProt P01270 59-79, looked up, fragment) |  | do not show any cross-reaction | do not show any cross-reaction |
| hPTH-(44-68): synthetic hPTH peptide, standard of the medium-regional RIA (RDAGSQRPRKKEDNVLVESHEKSLG; Parathyroid hormone; UniProt P01270 75-99, looked up, fragment) |  |  | do not show any cross-reaction |
| hPTH-(53-84): synthetic hPTH peptide, standard of the C-terminal RIA (KKEDNVLVESHEKSLGEADKADVNVLTKAKSQ; Parathyroid hormone; UniProt P01270 84-115, looked up, fragment) |  | 100% |  |
| hPTH-(64-84): synthetic hPTH peptide tested for cross-reaction in the RIAs (EKSLGEADKADVNVLTKAKSQ; Parathyroid hormone; UniProt P01270 95-115, looked up, fragment) |  | do not show any cross-reaction | 100% |
| B1 |  | 100% | 100% |
